Assay results taken from article PMC8763920, “Unprotected peptide macrocyclization and stapling via a fluorine-thiol displacement reaction” (Nature Communications, 2022).
*1 amine or outer side, *2 acyl side, *3 side chain or, on linkers, in order; H or OH if unused. Where a SMILES comes first, the peptide text is derived from it. Bridges are numbered along the chain shown (N, C = ends). [ ]: non-standard residue; d: D form. The star is where a group is joined. Benzene(1,3-(CH2SCH2CO)2) = O=C(CSCc1cccc(CSCC(=O)[*:2])c1)[*:1]; FITC = O=C1OC2(c3ccc(O)cc3Oc3cc(O)ccc32)c2ccc(NC(=S)*)cc21; Dap = NC[C@H](N)C(=O)O; βAla = NCCC(=O)O

Key:
[1] = test system: HeLa cells; assay: Cell penetration of STAD peptides, confocal imaging; type: cell-based; conditions: 5 µM peptide, 2 h, confocal microscopy, 78 normalized as 1, mean ± SEM
Method: Hoechst 33342 dye and FITC-labelled peptides were excited with 405 and 488 nm lasers (Coherent OBIS), respectively. Images were analysed with NIH ImageJ software. Using the “analyse particles” function, we measured the area and intensity of individual cells (Supplementary Fig. 34a)[87]. […] However, from the distribution of data we found the best fit curve to be lognormal. Outliers were then removed using a Grubbs test (Supplementary Fig. 35b)[88]. We determined the optimal bin size for the histogram using the Freedman–Draconis rule[89]. The mean fluorescence intensity from each treatment group was calculated from n ≥ 100 cells. Error bars represented SE. P values were calculated by two sided Welch’s t test for comparison with internalization of RCM-stapled control peptides.
For FITC-labelled SAHBA analogues, 5 μM of each was incubated with Jurkat cells for 4 h[13]. The rest of the imaging procedures were done the same as mentioned above. Likewise, 5 µM of STAD peptides were incubated with HeLa cells for 2 h[71], followed by similar imaging studies; and 2 µM of p53 peptide analouges were mixed with HCT116 wt cells for 4 h before the imaging analysis of their cellular uptake. Cell samples treated with STAD or p53 series of peptide analogues were also simulatenously stained by propidium iodide (PI) to ensure the cell viability and membrane integrity.

[2] = circular dichroism; conditions: water; pH ns; 25 °C; 70 uM
[3] = Circular dichroism, % alpha helicity; type: physicochemical; conditions: CD, 70 µM peptide, 25 °C, from MRE at 222 nm, three scans averaged; Axin and p53 peptides in water, HIV-targeting peptides in 25% acetonitrile/water
Method: The final concentration of the peptide samples was 70 µM. Circular dichroism (CD) measurements were performed on a Jasco model J-815 spectropolarimeter with a 1 mm Jasco quartz cell over the wavelength range of 180–250 nm. The scans were carried out at 0.2 nm resolution with 4 s average time at 25 °C. Data from three scans were averaged, base line corrected, and normalized to the mean residue ellipticity (MRE) following the equation: [θ]λ = [θ]obs/(10 × l × C × n). [θ]λ is MRE in deg × cm^2 × dmol^−1; [θ]obs is the measured ellipticity; C is the concentration of peptides in M; l is the optical pathlength in cm; and n is the number of residues in peptides. The % alpha helicity was calculated from the MRE values at 222 nm, using the equation % helicity = ([θ]222−[θ]0)/([θ]max−[θ]0) based on the previously reported method. [θ]222 is the MRE value at 222 nm; [θ]max is the maximum theoretical MRE value for a helix of n residues; and [θ]0 is the MRE value of the peptide in random coil conformation that usually equals to (2220-53T)[86].

[4] = test system: p53 wild-type HCT-116 cells; type: cell-based; conditions: human

| mean intensity versus RCM stapled STAD 78 [1] [fold] | Structure (SMILES) | helicity [2] [%] | Helicity (%) [3] [%] | EC50 [4] [nM] |
| --- | --- | --- | --- | --- |
| 2.92 ± 0.08 | CC[C@H](C)[C@@H]1NC(=O)[C@@H](NC(=O)[C@H](CC(=O)O)NC(=O)[C@H](C)NC(=O)[C@H](CC(C)C)NC(=O)[C@H](CCC(N)=O)NC(=O)[C@H](CCCCN)NC(=O)[C@H](C)NC(=O)[C@H](Cc2ccc(O)cc2)NC(=O)[C@H](CCCCN)NC(=O)[C@H](CCCCN)NC(=O)CCNC(=S)Nc2ccc3c(c2)C(=O)OC32c3ccc(O)cc3Oc3cc(O)ccc32)CNC(=O)CSCc2cccc(c2)CSCC(=O)NC[C@@H](C(=O)N[C@@H](C)C(=O)N[C@H](C(=O)N[C@@H](CCC(=O)O)C(N)=O)[C@@H](C)O)NC(=O)[C@H](CCCCN)NC(=O)[C@H]([C@@H](C)CC)NC1=O [compound 75] ({FITC-βAla}-KKYAKQLAD[Dap]IIK[Dap]ATE-NH2; linker 10-14 via Benzene(1,3-(CH2SCH2CO)2)) |  |  |  |
|  | CC(=O)N[C@@H](CCC(N)=O)C(=O)N[C@@H](CO)C(=O)N[C@@H](CCC(N)=O)C(=O)N[C@@H](CCC(N)=O)C(=O)N[C@H](C(=O)N[C@@H](Cc1ccccc1)C(=O)N[C@H]1CNC(=O)CSCc2ccc(cc2)CSCC(=O)NC[C@H](C(=O)N[C@@H](CCC(N)=O)C(=O)N[C@@H](CC(N)=O)C(N)=O)NC(=O)[C@H](CC(C)C)NC(=O)[C@H](CC(C)C)NC(=O)[C@H](CCCNC(=N)N)NC(=O)[C@H](Cc2c[nH]c3ccccc23)NC(=O)[C@H](CC(C)C)NC(=O)[C@H](CC(N)=O)NC1=O)[C@@H](C)O [compound 87] | 64 | 64 | 710 ± 180 |
